# Source: patent US5980939A, “Cyclosporin-containing pharmaceutical composition” (Chong Kun Dang Corp., priority 1996, dated 1999)
# Columns and labels:
# [1] = species and route not given; cited from earlier work
# [2] = Experiment 3: permeability of hydrophilic cosurfactant to the gelatin shell, content in soft capsule in course of time; type: physicochemical; conditions: for Change of the content of hydrophilic cosurfactant: solvent:Cremophor RH40 3:7 in soft capsule
# Text: Propylene glycol which contains --OH group in its molecular structure and therefore has high hygroscopic and hydrophilic properties is distributed in the capsule shell according to the movement of water present in the contents and gelatin capsule during encapsulation and drying procedures and therefore, is permeated to the capsule shell in course of time. According to this, since the constitutional ratio of the contents is greately varied at the early stage, of manufacturing procedures of the capsule preparation, the stability of the preparation cannot be ensured and further the reliable therapeutic effect cannot be obtained. […] Hereinafter, the permeability to the gelatin shell of the hydrophilic cosurfactant used in the soft capsule according to the present invention was determined and compared with the shell permeability of propylene glycol, transcutol, glycofurol or dimethylisosorbide used as the hydrophilic cosurfactant in the soft capsule according to the prior art. The content of each solvent in each soft capsule preparation was analyzed by gas chromatography and HPLC. […] At regular intervals, the constant amount of the sample was taken and then analyzed.
# Column: Ultra 2; Column temperature: 23° C.; Detector: FID; Detector temperature: 270° C.; Injection temperature: 275° C.; Carrier gas: He; Injection volume: 5 μl; Internal standard: octyl alcohol
# Column: 10% PEG 20M; Column temperature: 160° C.; Detector: FID; Injection temperature: 200° C.; Carrier gas: N2; Injection volume: 1 μl; Internal standard: pentadecanoic acid methyl ester
# Column: Ultra 2; Column temperature: 230° C.; Detector: FID; Detector temperature: 270° C.; Injection temperature: 270° C.; Carrier gas: He; Injection volume: 5 μl; Internal standard: pentadecanoic acid methyl ester
# [3] = system: rat; conditions: per oral; cited from earlier work
# [4] = Experiment 1: reactivity of hydrophilic cosurfactant with the gelatin shell by thermoanalyzer (DSC/DDSC); type: physicochemical; conditions: soft gelatin capsule filled with solvent, stored at room temperature, 3 months
# Description: Test for the reactivity of the hydrophilic cosurfactant according to the present invention with the gelatin shell in comparison to the reactivity of the solvents used in the prior art using a thermoanalyzer: The reactivities of the hydrophilic cosurfactant used according to the present invention and propylene glycol used as the hydrophilic cosurfactant in the prior preparation with the gelatin shell were determined using a thermoanalyzer. Each of the hydrophilic cosurfactants and mineral oil as the control solvent was filled in the soft gelatin capsule. The filled capsule was stored at room temperature. At regular intervals, the capsules were cut open by a sharp open blade, and the contents were removed by washing with ether and then about 20 mg of gelatin shell was accurately weighed and analyzed. The programed heating rate was 10° C./minute under nitrogen purge from 25 °C. to 300° C.
# [5] = system: mouse; conditions: intravenous injection; cited from earlier work
Compound,LD50 [1],stability of the cosurfactant content in soft capsule (in words) [2],Change of the content of hydrophilic cosurfactant ([2]; day 0),Change of the content of hydrophilic cosurfactant ([2]; day 5),Change of the content of hydrophilic cosurfactant ([2]; day 15),Change of the content of hydrophilic cosurfactant ([2]; day 30),Change of the content of hydrophilic cosurfactant ([2]; day 60),Change of the content of hydrophilic cosurfactant ([2]; day 90),Change of the content of hydrophilic cosurfactant ([2]; day 120),LD50 [3],DSC/DDSC pattern of gelatin shell versus shell of capsule filled with mineral oil [4],LD50 [5]
"CC1COC(=O)O1 (racemic) [Propylene carbonate, (±)-4-methyl-1,3-dioxolan-2-one]",29000 mg/kg,"at least comparable stability to dimethylisosorbide and is more stable than propylene glycol, transcutol and glycofurol",30.1 wt %,29.8 wt %,28.6 wt %,28.4 wt %,28.7 wt %,27.4 wt %,28.0 wt %,,,
"CO[C@H]1CO[C@H]2[C@@H]1OC[C@H]2OC [Dimethylisosorbide, 1,4:3,6-dianhydro-2,5-dimethyl-D-glucitol]",,,30.0 wt %,28.2 wt %,29.1 wt %,28.7 wt %,28.0 wt %,26.6 wt %,25.8 wt %,5.63 mL/kg,,
"CC(O)CO (stereo not drawn) [Propylene glycol, 1,2-propylene glycol]",,,29.9 wt %,21.9 wt %,22.8 wt %,21.0 wt %,22.4 wt %,21.5 wt %,19.5 wt %,21000 to 33700 mg/kg,shows a new peak,
"CCOCCOCCO [Transcutol, diethyleneglycol monoethyl ether]",,,30.1 wt %,22.1 wt %,23.1 wt %,21.9 wt %,22.1 wt %,21.7 wt %,20.3 wt %,,,
CC(C)=O [acetone],,,,,,,,,,10.7 mL/kg,,
CC#N [acetonitrile],,,,,,,,,,3800 mg/kg,,
c1ccccc1 [benzene],,,,,,,,,,3.8 mL/kg,,
CC(C)O [isopropanol],,,,,,,,,,5800 mg/kg,,
tetrahydrofurfurylalcohol polyethylene glycol [Glycofurol],,,30.0 wt %,24.4 wt %,21.0 wt %,23.5 wt %,21.0 wt %,20.7 wt %,20.4 wt %,,,3.5 mL/kg
